Results taken from patent US20260256728A1, “TREATMENT FOR ASYMPTOMATIC STARGARDT DISEASE PATIENTS” (priority 2024, published 2026).
“Also recorded” adds a separate entry of the source.

Experiments:
[1] = system: atrophic retinal lesions in Stargardt disease patients; assay: TEASE-1 growth rate of atrophic retinal lesions by fundus autofluorescence imaging; format: in vivo, human; design: relative slower growth rate of atrophic retinal lesions versus control / Percentage Slowing of Atrophic Retinal Lesion Growth Rate: concentration or dose not given beside the values
Procedure: The Tolerability and Effects of gildeuretinol acetate in Stargardt Disease (Clinical trial group 1, also known as TEASE-1) was a 24-month, multicenter, double-masked, placebo-controlled trial designed to evaluate the efficacy and safety of daily oral gildeuretinol acetate in slowing the growth of atrophic retinal lesions in Stargardt disease patients. The trial was conducted at multiple sites in the United States (NCT02402660).
Patients 12 years or older, clinically diagnosed with Stargardt disease, with at least one ABCA4 mutation, at least one eye presenting with well-demarcated areas of reduced fundus autofluorescence including retinal atrophic lesions, and with any visual acuity, were enrolled.
Patients were randomized to gildeuretinol acetate 14 mg capsules, gildeuretinol acetate 24 mg capsules, or placebo capsules, to be taken once daily for one year. After one year, 50% of randomly selected patients receiving placebo were crossed over in a 1:1 ratio to gildeuretinol acetate 14 mg capsules or gildeuretinol acetate 24 mg capsules for a second year.
Deidentified retinal images of patients not enrolled in the trial were included as a natural history cohort. This natural history cohort comprised patients diagnosed with Stargardt disease of any age, with two or more longitudinal fundus autofluorescence images taken at least four months apart over a maximum period of 2.5 years.
[…] retinal imaging comparing gildeuretinol acetate versus the untreated arm ([…]). Only well-delineated and homogeneous retinal atrophic lesions ≥0.2 mm^2 with a summed area ≥0.5 mm^2 were included in the primary analysis.
The primary endpoint analysis used a linear mixed-effect model (LMEM) with repeated measures, conferring a higher power to detect smaller effects. All observed data, including both eyes, were utilized. Treatment duration was computed as a continuous measure for each visit based on years since randomization. Adjustments for baseline retinal atrophy used the baseline atrophic retinal lesion size as a fixed effect in the LMEM. Additional fixed effects included treatment arm, treatment duration, and interaction between the treatment arm and treatment duration. Random effects included patient, eye, grader to adjust for correlation between eyes within a patient, graders' assessment of an eye, and observations of the same eye over time. A random effect slope term was added to the effect of treatment duration. Patients who crossed over to gildeuretinol acetate after year one were included in the untreated arm from baseline to year one, then in the gildeuretinol acetate arm from […] upon crossing over to gildeuretinol acetate. The full analysis set (FAS) comprised all randomized patients who received at least one dose of the study drug.
[…] All available data between 0 and 24 months was used to compute the slope of each segment. The primary efficacy endpoint was the slope of the second segment. No constraints were imposed on the Y-intercept. All growth rates were calculated on a per-year basis.
No imputations were made for missing data because the LMEM yields valid inferences under the assumption of a missing-at-random mechanism. The two-sided P-value of the primary efficacy endpoint was calculated using Kenward-Roger's method for handling denominator degrees of freedom and small samples. The goodness of fit of the linear mixed-effect model was provided as R-squared (R^2). Analyses were conducted in R (R Core Team, 2020). Prespecified, unadjusted sensitivity analyses of the primary efficacy endpoint included growth rates of untransformed areas of retinal atrophy and growth rates using a single-slope from baseline until the last available visit. Post-hoc unadjusted analyses were performed to evaluate the potential contribution of patient characteristics.

[2] = TEASE-3 plasma gildeuretinol; format: in vivo, human; details: 14 mg daily
Procedure: (§1) The tolerability and effects of ALK-001 (gildeuretinol acetate) in Stargardt Disease (Clinical trial group 3, also known as TEASE-3) study was an open-label, multicenter, case control study designed to evaluate the efficacy and safety of gildeuretinol acetate on the progression of Stargardt disease in asymptomatic individuals. The trial was conducted at multiple sites in the United States.
(§2) To assess the safety and efficacy of gildeuretinol acetate in preventing vision loss in asymptomatic individuals, gildeuretinol acetate 14 mg capsules were administered to individuals showing early signs of retinal damage while maintaining approximately 20/20 vision and no subjective loss of vision. […] Based on the above family history and clinical observations, the asymptomatic individuals were likely to develop retinal lesions, loss of photoreceptors, drops in retinal sensitivity, loss of visual acuity, indicating the onset of symptoms, i.e. a progression to the symptomatic phase, including vision loss within two years, mirroring the progression observed in their older siblings.
(§3) Patients received gildeuretinol acetate 14 mg capsules, to be taken orally once daily. Trial visits occurred every 6 months approximately following screening and treatment start visits.

[3] = system: asymptomatic Stargardt disease patients; assay: TEASE-3 best-corrected visual acuity (BCVA); format: in vivo, human
Procedure: as §1, §2
Testing asymptomatic individuals in the absence of a potential intervention is, therefore, controversial. All asymptomatic Stargardt disease patients were thus administered gildeuretinol acetate. Specific dose levels were not disclosed to the patients. Disease progression was compared to the symptomatic siblings with identical genetic mutations when aged-matched who had not received gildeuretinol acetate.
as §3
(§4) Disease progression was monitored by best-corrected visual acuity (BCVA) reported in number of Early Treatment Diabetic Retinopathy Study (ETDRS) letters, fundus autofluorescence (FAF) imaging, loss of photoreceptors (as measured by the ellipsoid zone band loss) by optical coherence tomography (OCT) and retinal sensitivity by microperimetry.
Measurements from the left and right eye for each patient were averaged for each visit to produce a single statistical unit for both eyes. For segmented linear regressions, knot times were selected so that three visits were included in the first segment.

[4] = system: asymptomatic Stargardt disease patients; assay: TEASE-3 fundus autofluorescence (FAF) imaging; format: in vivo, human; details: after two to four years of treatment, three patients
Procedure: as §1
To assess the safety and efficacy of gildeuretinol acetate in preventing vision loss in asymptomatic individuals, gildeuretinol acetate 14 mg capsules were administered to individuals showing early signs of retinal damage while maintaining approximately 20/20 vision and no subjective loss of vision. […]
as §4

TEASE-3 safety = format: in vivo, human; details: three patients, 14 mg daily
Procedure: The tolerability and effects of ALK-001 (gildeuretinol acetate) in Stargardt Disease (Clinical trial group 3, also known as TEASE-3) study was an open-label, multicenter, case control study designed to evaluate the efficacy and safety of gildeuretinol acetate on the progression of Stargardt disease in asymptomatic individuals. The trial was conducted at multiple sites in the United States. Patients received gildeuretinol acetate 14 mg capsules, to be taken orally once daily. Trial visits occurred every 6 months approximately following screening and treatment start visits. Ocular safety was assessed by retinal imaging and ocular exam, which included evaluation of the anterior and posterior segments and the lens. Systemic safety was assessed by physical exam, comprehensive clinical labs (biochemistry, hematology, lipids), and 12-lead ECG.

[5] = in vivo

## [2H]C([2H])([2H])C(/C=C/C=C(C)/C=C/C1=C(C)CCCC1(C)C)=C\COC(C)=O [gildeuretinol acetate]
[1]; 14 to 24 mg daily, slope 6 to 24 months, 34 patients
  growth rate of atrophic retinal lesions (square root area): 0.19 mm/year
[1]; P<0.001, R^2=0.9996
  relative slower growth rate of atrophic retinal lesions versus control: 21%
[1]; control 0.24 mm/year (placebo + natural history), 95% CI 0.03 to 0.07
  difference in growth rate of atrophic retinal lesions versus control: 0.05 mm/year
[1]; in vivo
  prespecified primary efficacy endpoint (mean growth rate of atrophic retinal lesions vs placebo and natural history): met its prespecified primary efficacy endpoint
[1]; symptomatic Stargardt disease patients, once daily up to 24 months
  effect on expansion of retinal atrophic lesions / retinal degeneration: slowed the expansion of retinal atrophic lesions; also recorded: slows retinal degeneration
[2]
  replacement of plasma vitamin A sustained throughout the treatment period: Over 80%
[2]; after the first two months, all three participants
  replacement of plasma vitamin A (retinol) with gildeuretinol: 80%
[3]; asymptomatic Stargardt disease patients, 14 mg daily, up to four years
  effect on vision loss: effectively prevented vision loss and further retinal damage; also recorded: completely prevented vision loss; also recorded: arrested loss of vision and retinal pathology
[3]; in vivo
  average BCVA improvement versus untreated siblings, lines of vision on the ETDRS eyechart: four
[3]; treated asymptomatic patients
  visual acuity (Snellen): ~ 20/20 and approximately 20/20
[3]; treated siblings, 14 mg daily, 2-4 years
  BCVA: 88±4 ETDRS letters
[3]; untreated siblings 66±10 ETDRS letters
  average BCVA improvement versus untreated age-matched siblings: 22±13 letters
[4]
  disease progression / changes by FAF imaging: none of the three treated Stargardt disease patients exhibited changes by FAF; also recorded: no observable disease progression; also recorded: no visible disease progression by fundus autofluorescence imaging occurred
TEASE-3 safety
  adverse reactions linked to excessive or insufficient vitamin A (delays in dark adaptation, night blindness): None of the three Stargardt disease asymptomatic patients exhibited adverse reactions
[5]
  Patients experiencing event (%): Ear infection: 1 (10.0)
  Patients experiencing event (%): Gastroenteritis viral: 0
  Patients experiencing event (%): Herpes zoster: 0
  Patients experiencing event (%): Skin infection: 0
  Patients experiencing event (%): Upper respiratory tract infection: 2 (20.0)
  changes in visual acuity: No changes in visual acuity were observed
  discontinuation of treatment due to side effects: no patient discontinued treatment due to side effects
  serious adverse events associated with treatment: No serious adverse events
  severity of adverse events: mild or moderate
